Source: US11098040B2, “Compounds and methods of use” (Ferro Therapeutics, Inc., priority 2018, dated 2021)

How the values were obtained:
[1] = Whole blood stability, human; assay type: in vitro ADME
From the text: (§1) The results of the assay on stability in blood and IC50 values for pancreatic cancer cell line KP4 are given below in Table 24.

[2] = Whole blood stability, mouse; assay type: in vitro ADME
From the text: as §1

KP4 = test: Cell viability assay (CellTiter Glo), pancreatic ductal adenocarcinoma KP4; assay type: cell-based, human; conditions: Homo sapiens, KP-4, 96 h, pancreatic cancer cell line KP4, 96 hours, CellTiter Glo; read-out: IC50 μM KP4
How it was run: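 Luminescent ATP readout (CellTiter Glo) after 96 h compound exposure, normalized to DMSO-treated cells as maximum. Compounds ran in duplicate, nine 3-fold steps from 30 μM down to 4.6 nM, final DMSO ≤0.25%; KP4 plated overnight at 1,000–10,000 cells/well. Outputs: IC50, relative IC50 or % top inhibition.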

SMILES	Whole Blood Stability % Remaining at 37° C. Human ([1]; 0 min) [%]	Whole Blood Stability % Remaining at 37° C. Human ([1]; 30 min) [%]	Whole Blood Stability % Remaining at 37° C. Human ([1]; 60 min) [%]	Whole Blood Stability % Remaining at 37° C. Mouse ([2]; 0 min) [%]	Whole Blood Stability % Remaining at 37° C. Mouse ([2]; 30 min) [%]	Whole Blood Stability % Remaining at 37° C. Mouse ([2]; 60 min) [%]	IC50 (KP4) [µM]
COC(=O)[C@H]1Cc2c([nH]c3ccccc23)[C@H](c2ccc(C(=O)NCCN)cc2)N1C(=O)CCl [Compound 15]	100.0	72.7	66.8	100.0	83.0	50.2	0.1 to 0.5
COC(=O)c1ccc([C@H]2c3[nH]c4cccc(Br)c4c3C[C@H](C(=O)OC)N2C(=O)CCl)cc1 [Compound 95]	100.0	109.5	85.6	100.0	1.5	0.0	0.01 to 0.1
C#CCOC(=O)c1ccc([C@@H]2c3[nH]c4ccccc4c3C[C@H](C(=O)OC)N2C(=O)CCl)cc1 [BXa]	100.0	95.7	46.8	100.0	0.0	0.0	0.01 to 0.1
CC(C)(C)OC(=O)c1ccc([C@H]2c3[nH]c4ccccc4c3C[C@H](CO)N2C(=O)CCl)cc1 [Example 63a]	100.0	35.0	13.2	100.0	4.5	0.0	> 1
CN(C)C(=O)[C@H]1Cc2c([nH]c3ccccc23)[C@H](c2ccc(S(=O)(=O)C(C)(C)C)cc2)N1C(=O)CCl [Compound 68]	100.0	36.8	20.6	100.0	65.0	36.9	0.01 to 0.1
COC(=O)[C@H]1Cc2c([nH]c3ccccc23)[C@H](c2ccc(C(=O)N[C@]34CC5C[C@H](C[C@H](C5)C3)C4)cc2)N1C(=O)CCl [Compound 28, Methyl-(1S,3R)-1-(4-(((3R,5R,7R)-adamantan-1-yl)carbamoyl)phenyl)-2-(2-chloroacetyl)-2,3,4,9-tetrahydro-1H-pyrido[3,4-b]indole-3-carboxylate]	100.0	73.4	51.6	100.0	78.3	68.9	< 0.01
COC(=O)c1ccc([C@H]2c3[nH]c4ccccc4c3C[C@H](C(=O)OC)N2C(=O)CCl)cc1 [K601 (RSL3), reference compound]	100.0	60.8	42.5	100.0	0.2	0.2	< 0.01
COC(=O)c1ccc([C@@H]2c3[nH]c4ccc(Cl)cc4c3C[C@H](C(=O)OC)N2C(=O)CCl)cc1 [Compound 94]	100.0	50.3	27.1	100.0	0.0	0.0	< 0.01
COC(=O)[C@H]1Cc2c([nH]c3ccccc23)[C@H](c2ccc(C(=O)NCC3CC3)cc2)N1C(=O)CCl [Compound 81]	100.0	48.0	40.6	100.0	64.2	39.8	< 0.01
COC(=O)[C@H]1Cc2c([nH]c3ccccc23)[C@H](c2ccc(S(=O)(=O)N3CC(O)C3)cc2)N1C(=O)CCl [Compound 37]	100.0	37.8	17.9	100.0	25.4	9.8	0.01 to 0.1
CN(C)C(=O)c1ccc([C@@H]2c3sc4ccccc4c3C[C@H](C(=O)N(C)C)N2C(=O)CCl)cc1 [Compound 55a]	100.0	42.6	16.7	100.0	82.3	60.4	0.5 to 1
COC[C@H]1Cc2c([nH]c3ccccc23)[C@H](c2ccc(C(=O)OC(C)(C)C)cc2)N1C(=O)CCl [Compound 63]	100.0	113.1	70.7	100.0	97.0	108.4	0.01 to 0.1
C[C@H]1Cc2c([nH]c3ccccc23)[C@H](c2ccc(C3CCCCC3)cc2)N1C(=O)CCl [Compound 110]	100.0	68.3	51.7	100.0	127.4	111.0	< 0.01
CCC[C@H]1Cc2c([nH]c3ccccc23)[C@H](c2ccc(N3CCOCC3)cc2)N1C(=O)CCl [Compound 118]	100.0	100.2	68.8	100.0	60.7	0.0	< 0.01
COC(=O)[C@H]1Cc2c([nH]c3ccccc23)[C@H](c2ccc(S(=O)(=O)NCC3CC3)cc2)N1C(=O)CCl [Compound 82]	100.0	47.6	34.5	100.0	43.1	21.7	< 0.01
C[C@H]1Cc2c([nH]c3ccc(C#N)cc23)[C@H](c2ccc(N3CCOCC3)cc2)N1C(=O)CCl [Compound 115]	100.0	72.9	44.0	100.0	34.2	0.0	< 0.01
